Assay results taken from patent US20130310344A1, “N-ACYLSULFONAMIDE APOPTOSIS PROMOTERS” (ASTRAZENECA AB, priority 2010, published 2013).
Counter-ions that a name gives are not always drawn.

Legend:
Bcl-2 = target: T1, Bcl-2 (Homo sapiens, UniProt P10415); assay: Bcl-2 FP assay (competitive fluorescence polarization binding assay, FITC-Bim BH-3 peptide tracer); settings: c-terminal 6×HIS tagged Bcl-2 (aa 1-204), 1.3 nM; 2 nM FITC-Bim peptide tracer
T1 construct: a c-terminal 6×HIS tagged Bcl-2 (aa 1-204); 6xHis (C)
Text: (§1) Bcl-xL and Bcl-2 FP binding affinity of compound(s) of Formulae (I), (I-a), (I-b), (I-c), (I-d) and/or (I-e) may be determined using a variety of known methods. One such assay is a sensitive and quantitative in vitro binding assay using fluorescence polarization (“FP”) described by Wang, J.-L.; Zhang, Z-J.; Choksi, S.; Sjam. S.; Lu, Z.; Croce, C. M.; Alnemri, E. S.; Komgold, R.; Huang, Z. Cell permeable Bcl-2 binding peptides: a chemical approach to apoptosis induction in tumor cells. Cancer Res. 2000, 60, 1498-1502).
(§2) Additionally, the binding affinity of compound(s) of Formulae (I), (I-a), (I-b), (I-c), (I-d) and/or (I-e) to Bcl-2 protein in vitro was determined by a competitive binding assay based on fluorescence polarization. For example, fluorescence polarization (“FP”) assays may be developed using a c-terminal 6×HIS tagged Bcl-2 (aa 1-204) and a C-terminal 6×HIS tagged Bcl-XL (aa 1-209). […] Dilutions of either Bcl-2 (1.3 nM) or Bcl-XL (0.8 nM) may be added to serial dilutions of antagonist and incubated for one hour prior to the addition of 2 nM of fluorescent peptide tracer (Anaspec, Fremont, Calif.) in the assay buffer. Final assay buffer conditions may be 20 mM HEPES, pH 7.5, 1 mM DTT, 0.005% Tween-20 and 50 mM NaCl. Samples may be read after 20-minute incubation. Fluorescence polarization values may be plotted as a function of the antagonist concentration.

Bcl-XL = target: T2, Bcl-XL (Homo sapiens, UniProt Q07817); assay: Bcl-XL FP assay (competitive fluorescence polarization binding assay, FITC-Bim BH-3 peptide tracer); settings: C-terminal 6×HIS tagged Bcl-XL (aa 1-209), 0.8 nM; 2 nM FITC-Bim peptide tracer
T2 construct: a C-terminal 6×HIS tagged Bcl-XL (aa 1-209); 6xHis (C)
Text: as §1, §2

T2 sequence (Q07817 1-209): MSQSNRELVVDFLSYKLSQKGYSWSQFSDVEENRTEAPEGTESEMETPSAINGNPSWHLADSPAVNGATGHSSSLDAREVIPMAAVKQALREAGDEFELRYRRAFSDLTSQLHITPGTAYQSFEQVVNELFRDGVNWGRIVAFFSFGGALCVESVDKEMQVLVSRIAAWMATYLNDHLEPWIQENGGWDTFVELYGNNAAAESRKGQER
T1 sequence (P10415 1-204): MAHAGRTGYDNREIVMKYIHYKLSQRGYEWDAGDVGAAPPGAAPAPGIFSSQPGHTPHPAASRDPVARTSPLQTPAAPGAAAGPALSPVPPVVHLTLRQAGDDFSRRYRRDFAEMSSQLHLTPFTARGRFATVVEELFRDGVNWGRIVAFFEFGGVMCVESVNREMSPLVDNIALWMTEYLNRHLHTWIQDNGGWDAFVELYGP

Row | IC50 (Bcl-2) [nM] | IC50 (Bcl-XL) [nM] | SMILES
1 | 253 | 78 | O=C(NS(=O)(=O)c1ccc(N[C@H](CCN2CCOCC2)CSc2ccccc2)c(S(=O)(=O)C(F)(F)F)c1)c1ccc(N2CCC([C@H](O)c3ccccc3-c3ccc(Cl)cc3)CC2)cc1 [Example 14, 4-(4-((S)-(4′-chlorobiphenyl-2-yl)(hydroxy)methyl)piperidin-1-yl)-N-(4-((R)-4-morpholino-1-(phenylthio)butan-2-ylamino)-3-(trifluoromethylsulfonyl)phenylsulfonyl)benzamide]
2 | 3 | 1 | O=C(NS(=O)(=O)c1ccc(N[C@H](CCN2CCOCC2)CSc2ccccc2)c(S(=O)(=O)C(F)(F)F)c1)c1ccc(N2CCC([C@@H](O)c3ccccc3-c3ccc(Cl)cc3)CC2)cc1 [Example 15, 4-(4-((R)-(4′-chlorobiphenyl-2-yl)(hydroxy)methyl)piperidin-1-yl)-N-(4-((R)-4-morpholino-1-(phenylthio)butan-2-ylamino)-3-(trifluoromethylsulfonyl)phenylsulfonyl)benzamide]
3 | 0.8 | 1 | O=C(NS(=O)(=O)c1ccc(N[C@H](CCN2CCOCC2)CSc2ccccc2)c([N+](=O)[O-])c1)c1ccc(N2CCC([C@@H](O)c3ccccc3-c3ccc(Cl)cc3)CC2)cc1 [Example 16, 4-(4-((R)-(4′-chlorobiphenyl-2-yl)(hydroxy)methyl)piperidin-1-yl)-N-(4-((R)-4-morpholino-1-(phenylthio)butan-2-ylamino)-3-nitrophenylsulfonyl)benzamide]
4 | 0.3 | 1 | CCN(CC)C[C@H]1COCCN1CC[C@H](CSc1ccccc1)Nc1ccc(S(=O)(=O)NC(=O)c2ccc(N3CCC([C@@H](O)c4ccccc4-c4ccc(Cl)cc4)CC3)cc2)cc1S(=O)(=O)C(F)(F)F [Example 20, 4-(4-((R)-(4′-chlorobiphenyl-2-yl)(hydroxy)methyl)piperidin-1-yl)-N-(4-((R)-4-((S)-3-((diethylamino)methyl)morpholino)-1-(phenylthio)butan-2-ylamino)-3-(trifluoromethylsulfonyl)phenylsulfonyl)benzamide]
5 | 0.3 | 0.5 | CCN(CC)C[C@@H]1COCCN1CC[C@H](CSc1ccccc1)Nc1ccc(S(=O)(=O)NC(=O)c2ccc(N3CCC([C@@H](O)c4ccccc4-c4ccc(Cl)cc4)CC3)cc2)cc1S(=O)(=O)C(F)(F)F [Example 21, 4-(4-((R)-(4′-chlorobiphenyl-2-yl)(hydroxy)methyl)piperidin-1-yl)-N-(4-((R)-4-((R)-3-((diethylamino)methyl)morpholino)-1-(phenylthio)butan-2-ylamino)-3-(trifluoromethylsulfonyl)phenylsulfonyl)benzamide]
6 | 4 | 2 | CC(C)(C)OP(=O)(O)OCO[C@@H](c1ccccc1-c1ccc(Cl)cc1)C1CCN(c2ccc(C(=O)NS(=O)(=O)c3ccc(N[C@H](CCN4CCOCC4)CSc4ccccc4)c(S(=O)(=O)C(F)(F)F)c3)cc2)CC1 [Example 28, tert-Butyl((R)-(4′-chlorobiphenyl-2-yl)(1-(4-(4-((R)-4-morpholino-1-(phenylthio)butan-2-ylamino)-3-(trifluoromethylsulfonyl)phenylsulfonylcarbamoyl)-phenyl)piperidin-4-yl)methoxy)methyl hydrogen phosphate]
7 | 27 | 19 | CNCC(=O)N[C@@H](c1ccccc1-c1ccc(Cl)cc1)C1CCN(c2ccc(C(=O)NS(=O)(=O)c3ccc(N[C@H](CCN4CCOCC4)CSc4ccccc4)c(S(=O)(=O)C(F)(F)F)c3)cc2)CC1 [Example 34, 4-(4-((R)-(4′-chlorobiphenyl-2-yl)(2-(methylamino)acetamido)methyl)piperidin-1-yl)-N-(4-((R)-4-morpholino-1-(phenylthio)butan-2-ylamino)-3-(trifluoromethylsulfonyl)phenylsulfonyl)benzamide, hydrochloride salt]
8 | 38 | 22 | NCC(=O)N[C@@H](c1ccccc1-c1ccc(Cl)cc1)C1CCN(c2ccc(C(=O)NS(=O)(=O)c3ccc(N[C@H](CCN4CCOCC4)CSc4ccccc4)c(S(=O)(=O)C(F)(F)F)c3)cc2)CC1 [Example 35, 4-(4-((R)-(2-aminoacetamido)(4′-chlorobiphenyl-2-yl)methyl)piperidin-1-yl)-N-(4-((R)-4-morpholino-1-(phenylthio)butan-2-ylamino)-3-(trifluoromethylsulfonyl)phenylsulfonyl)benzamide hydrochloride salt]
9 | 24 | 18 | CN(C)[C@@H](c1ccccc1-c1ccc(Cl)cc1)C1CCN(c2ccc(C(=O)NS(=O)(=O)c3ccc(N[C@H](CCN4CCOCC4)CSc4ccccc4)c(S(=O)(=O)C(F)(F)F)c3)cc2)CC1 [Example 36, 4-(4-((R)-(4′-chlorobiphenyl-2-yl)(dimethylamino)methyl)piperidin-1-yl)-N-(4-((R)-4-morpholino-1-(phenylthio)butan-2-ylamino)-3-(trifluoromethylsulfonyl)phenylsulfonyl)benzamide, hydrochloride salt]

Row | SMILES | IC50 (Bcl-2) [nM] | IC50 (Bcl-XL) [nM]
10 | O=C(NS(=O)(=O)c1ccc(N[C@H](CCN2CCO[C@@H](CO)C2)CSc2ccccc2)c(S(=O)(=O)C(F)(F)F)c1)c1ccc(N2CCC([C@@H](O)c3ccccc3-c3ccc(Cl)cc3)CC2)cc1 [Example 22, 4-(4-((R)-(4′-chlorobiphenyl-2-yl)(hydroxy)methyl)piperidin-1-yl)-N-(4-((R)-4-((R)-2-(hydroxymethyl)morpholino)-1-(phenylthio)butan-2-ylamino)-3-(trifluoromethylsulfonyl)phenylsulfonyl)benzamide, formic acid salt] | 0.6 | 3
11 | O=C(NS(=O)(=O)c1ccc(N[C@H](CCN2CCO[C@H](CO)C2)CSc2ccccc2)c(S(=O)(=O)C(F)(F)F)c1)c1ccc(N2CCC([C@@H](O)c3ccccc3-c3ccc(Cl)cc3)CC2)cc1 [Example 23, 4-(4-((R)-(4′-chlorobiphenyl-2-yl)(hydroxy)methyl)piperidin-1-yl)-N-(4-((R)-4-((S)-2-(hydroxymethyl)morpholino)-1-(phenylthio)butan-2-ylamino)-3-(trifluoromethylsulfonyl)phenylsulfonyl)benzamide, formic acid salt] | 1 | 1
12 | CCOP(=O)(OCC)O[C@@H](c1ccccc1-c1ccc(Cl)cc1)C1CCN(c2ccc(C(=O)NS(=O)(=O)c3ccc(N[C@H](CCN4CCOCC4)CSc4ccccc4)c(S(=O)(=O)C(F)(F)F)c3)cc2)CC1 [Example 29, (R)-(4′-chlorobiphenyl-2-yl)(1-(4-(4-((R)-4-morpholino-1-(phenylthio)butan-2-ylamino)-3-(trifluoromethylsulfonyl)phenylsulfonylcarbamoyl)phenyl)piperidin-4-yl)methyl diethyl phosphate, hydrochloride salt] | 30 | 12
13 | COP(=O)(O)O[C@@H](c1ccccc1-c1ccc(Cl)cc1)C1CCN(c2ccc(C(=O)NS(=O)(=O)c3ccc(N[C@H](CCN4CCOCC4)CSc4ccccc4)c(S(=O)(=O)C(F)(F)F)c3)cc2)CC1 [Example 30, (R)-(4′-chlorobiphenyl-2-yl)(1-(4-(4-((R)-4-morpholino-1-(phenylthio)butan-2-ylamino)-3-(trifluoromethylsulfonyl)phenylsulfonylcarbamoyl)phenyl)piperidin-4-yl)methyl methyl hydrogen phosphate, hydrochloride salt] | 1 | 1
14 | N[C@@H](c1ccccc1-c1ccc(Cl)cc1)C1CCN(c2ccc(C(=O)NS(=O)(=O)c3ccc(N[C@H](CCN4CCOCC4)CSc4ccccc4)c(S(=O)(=O)C(F)(F)F)c3)cc2)CC1 [Example 33, 4-(4-((R)-amino(4′-chlorobiphenyl-2-yl)methyl)piperidin-1-yl)-N-(4-((R)-4-morpholino-1-(phenylthio)butan-2-ylamino)-3-(trifluoromethylsulfonyl)phenylsulfonyl)benzamide, formic acid salt] | 30 | 33
